The test has as its target ITK enzyme (ITK FL, N-Flag and C-His tagged) (Homo sapiens (Human), UniProt Q08881). Kind of test: ITK enzyme assay (IL-2-inducible T-cell kinase activity). In kind it is biochemical. Particulars: geometric mean of count n. As to the method: IL-2-Inducible T-Cell Kinase (ITK) Activity, IC50 (nM)
ITK activity was determined by measuring the effect of a test compound in an ITK enzyme assay.
1.0 M HEPES Buffer pH 7.5 solution was prepared as follows: 238.3 g HEPES free acid (Sigma) and 800 mL of water were combined, and the mixture was stirred until complete dissolution. The pH was adjusted to 7.5 via titration with 5N NaOH and the volume adjusted to 1000 mL. The solution was filtered and sterilized.
ITK assay buffer was prepared as follows: 50 mL of HPLC-grade water was treated with 2 mL of 1.0 M HEPES Buffer, 500 μL of 2% Gelatin (Sigma), 1.0 mL of aqueous MgCl2 solution (1.0 M), and 1.0 mL of aqueous glutathione solution (0.5 M), and the solution was mixed. The solution was brought to 99 mL in a graduated cylinder by addition of water and sterilized through a 0.2 μm filter. 0.1 mL of Brij-35™ Surfact-Amps™ Detergent Solution (10% w/v aqueous solution, ThermoFisher) and 1.0 mL of ATP (Teknova, 100 mM) were added and the solution was mixed.
The resulting solution was stored on ice. 30 Minutes prior to use, the enzyme solution was removed from ice and equilibrated to RT by incubation in a RT water bath.
Preparation of 4×ITK substrate solution was as follows: 50 mL of ITK assay buffer was treated with 100 μL of BTK peptide (China Peptide Company, 2 mM stock solution in DMSO). The tube was capped, mixed by gently inverting the tube, and then stored on ice. 30 Minutes prior to use, the substrate solution was removed from ice and equilibrated to RT by incubation in a RT water bath.
At the time of assay, 7.5 μL of the 1.33×ITK enzyme solution was added to plate wells containing 0.1 μL of varying concentrations of test compound in DMSO. The plate was incubated 30 min at RT. The plate wells were each treated with 2.5 uL of the 4×ITK substrate solution and the plate was sealed (TopSeal™, Perkin Elmer). The plate was spun at 1000 rpm for 30 sec and then incubated for 60 min at RT. The seal was removed, and each well was treated with 10 μL of Stop/Detect Buffer (20 mM HEPES pH 7.5, 0.01% gelatin, 1 nM LANCE PT66 (Perkin Elmer), 16.5 μg/ml Surelight APC (Perkin Elmer), 10 mM EDTA, 250 mM NaCl). The plate was again covered and was spun at 1000 rpm for 30 seconds. The plate was allowed to incubate overnight at RT and in a closed carrier to reduce dehydration. The seal was removed, and the fluorescence was read with a plate reader with an excitation wavelength of […] and an emission wavelength of 615 nm.

pIC50: −log10 of the molar value.

Sequence of ITK enzyme (ITK FL, N-Flag and C-His tagged) (Q08881 whole entry): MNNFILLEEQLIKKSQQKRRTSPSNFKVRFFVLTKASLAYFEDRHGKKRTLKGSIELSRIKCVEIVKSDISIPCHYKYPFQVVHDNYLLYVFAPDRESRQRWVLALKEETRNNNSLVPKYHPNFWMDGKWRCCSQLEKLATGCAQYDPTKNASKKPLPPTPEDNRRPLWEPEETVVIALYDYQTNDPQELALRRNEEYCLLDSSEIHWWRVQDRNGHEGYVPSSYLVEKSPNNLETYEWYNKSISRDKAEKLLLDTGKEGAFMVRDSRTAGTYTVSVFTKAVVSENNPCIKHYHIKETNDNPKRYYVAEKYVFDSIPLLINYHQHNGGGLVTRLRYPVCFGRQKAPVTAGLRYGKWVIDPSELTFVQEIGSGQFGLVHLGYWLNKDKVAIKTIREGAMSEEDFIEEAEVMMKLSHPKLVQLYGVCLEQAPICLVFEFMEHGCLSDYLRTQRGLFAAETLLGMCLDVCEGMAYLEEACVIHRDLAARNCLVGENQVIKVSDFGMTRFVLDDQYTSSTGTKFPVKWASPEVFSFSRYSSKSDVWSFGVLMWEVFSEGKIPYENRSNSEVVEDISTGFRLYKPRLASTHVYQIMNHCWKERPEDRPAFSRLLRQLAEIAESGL

A word on the pIC50: it is the negative decadic logarithm of the IC50, by convention in mol/L. A lower pIC50 goes with a high IC50. Molecule `Cc1cc2[nH]c(-c3n[nH]c4c3C[C@@H]3C[C@]3(C)C4)nc2cc1N(C)C(=O)[C@H](C)C1CCOCC1` [Example 4, (R)—N-methyl-N-(6-methyl-2-((4aS,5aR)-5a-methyl-1,4,4a,5,5a,6-hexahydrocyclopropa[f]indazol-3-yl)-1H-benzo[d]imidazol-5-yl)-2-(tetrahydro-2H-pyran-4-yl)propanamide] gave a pIC50 of 8.52.
The molecule `CCN(C(=O)[C@H](C)N1CCOCC1)c1cc(F)c2[nH]c(-c3n[nH]c4c3C[C@@H]3C[C@]3(C)C4)nc2c1` [Example 16, (S)—N-ethyl-N-(7-fluoro-2-((4aS,5aR)-5a-methyl-1,4,4a,5,5a,6-hexahydrocyclopropa[f]indazol-3-yl)-1H-benzo[d]imidazol-5-yl)-2-morpholinopropanamide] showed a pIC50 of 8.30.
For the molecule `C[C@@H](C(=O)N(C)c1cc(C(F)F)c2[nH]c(-c3n[nH]c4c3C[C@@H]3C[C@]3(C)C4)nc2c1)N1CCOCC1` [Example 48, (S)—N-(7-(difluoromethyl)-2-((4aS,5aR)-5a-methyl-1,4,4a,5,5a,6-hexahydrocyclopropa[f]indazol-3-yl)-1H-benzo[d]imidazol-5-yl)-N-methyl-2-morpholinopropanamide], the pIC50 was 7.77. This pIC50 lies 0.53 log units lower than the previous one.
The result for `C[C@@H](C(=O)N(C)c1cc(F)c2[nH]c(-c3n[nH]c4c3C[C@@H]3C[C@]3(C)C4)nc2c1)C1CCOCC1` [Example 12, (R)—N-(7-fluoro-2-((4aS,5aR)-5a-methyl-1,4,4a,5,5a,6-hexahydrocyclopropa[f]indazol-3-yl)-1H-benzo[d]imidazol-5-yl)-N-methyl-2-(tetrahydro-2H-pyran-4-yl)propanamide] reads 8.52; that for `C[C@@H](C(=O)N(C)c1cc(Cl)c2[nH]c(-c3n[nH]c4c3C[C@@H]3C[C@]3(C)C4)nc2c1)N1CCOCC1` [Example 43, (S)—N-(7-chloro-2-((4aS,5aR)-5a-methyl-1,4,4a,5,5a,6-hexahydrocyclopropa[f]indazol-3-yl)-1H-benzo[d]imidazol-5-yl)-N-methyl-2-morpholinopropanamide], 7.80.
`C[C@@H](C(=O)N(C)c1ccc2[nH]c(-c3n[nH]c4c3C[C@@H]3C[C@]3(C)C4)nc2c1)N1CCOCC1` [Example 14, (S)—N-methyl-N-(2-((4aS,5aR)-5a-methyl-1,4,4a,5,5a,6-hexahydrocyclopropa[f]indazol-3-yl)-1H-benzo[d]imidazol-5-yl)-2-morpholinopropanamide] gave a pIC50 of 8.52.
In turn, `COCc1cc(N(C)C(=O)[C@H](C)N2CCOCC2)cc2nc(-c3n[nH]c4c3C[C@@H]3C[C@]3(C)C4)[nH]c12` [Example 42, (S)—N-(7-(methoxymethyl)-2-((4aS,5aR)-5a-methyl-1,4,4a,5,5a,6-hexahydrocyclopropa[f]indazol-3-yl)-1H-benzo[d]imidazol-5-yl)-N-methyl-2-morpholinopropanamide] had a pIC50 of 7.42.
`C[C@@H](C(=O)N(C)c1cc2nc(-c3n[nH]c4c3C[C@@H]3C[C@]3(C)C4)[nH]c2cc1C#N)N1CCOCC1` [Example 21, (S)—N-(6-cyano-2-((4aS,5aR)-5a-methyl-1,4,4a,5,5a,6-hexahydrocyclopropa[f]indazol-3-yl)-1H-benzo[d]imidazol-5-yl)-N-methyl-2-morpholinopropanamide] had a pIC50 of 8.05.
The molecule `C[C@@H](C(=O)N(C)c1cc(CO)c2[nH]c(-c3n[nH]c4c3C[C@@H]3C[C@]3(C)C4)nc2c1)N1CCOCC1` [Example 45, (S)—N-(7-(hydroxymethyl)-2-((4aS,5aR)-5a-methyl-1,4,4a,5,5a,6-hexahydrocyclopropa[f]indazol-3-yl)-1H-benzo[d]imidazol-5-yl)-N-methyl-2-morpholinopropanamide] had a pIC50 of 7.77.
Molecule `C[C@@H](C(=O)N(C)c1cc2nc(-c3n[nH]c4c3C[C@@H]3C[C@]3(C)C4)[nH]c2cc1F)N1CCOCC1` [Example 17, (S)—N-(6-fluoro-2-((4aS,5aR)-5a-methyl-1,4,4a,5,5a,6-hexahydrocyclopropa[f]indazol-3-yl)-1H-benzo[d]imidazol-5-yl)-N-methyl-2-morpholinopropanamide] had a pIC50 of 8.30.
In turn, `Cc1cc(N(C)C(=O)[C@H](C)N2CCOCC2)cc2nc(-c3n[nH]c4c3C[C@@H]3C[C@]3(C)C4)[nH]c12` [Example 50, (S)—N-methyl-N-(7-methyl-2-((4aS,5aR)-5a-methyl-1,4,4a,5,5a,6-hexahydrocyclopropa[f]indazol-3-yl)-1H-benzo[d]imidazol-5-yl)-2-morpholinopropanamide] showed a pIC50 of 7.80.
Under `C[C@@H](C(=O)N(C)c1cc(F)c2[nH]c(-c3n[nH]c4c3C[C@@H]3C[C@]3(C)C4)nc2c1)N1CCOCC1` [Example 15, (S)—N-(7-fluoro-2-((4aS,5aR)-5a-methyl-1,4,4a,5,5a,6-hexahydrocyclopropa[f]indazol-3-yl)-1H-benzo[d]imidazol-5-yl)-N-methyl-2-morpholinopropanamide] stands 8.40.
Under `C[C@@H](C(=O)N(C)c1cc(C#N)c2[nH]c(-c3n[nH]c4c3C[C@@H]3C[C@]3(C)C4)nc2c1)C1CCOCC1` [Example 55, (R)—N-(7-cyano-2-((4aS,5aR)-5a-methyl-1,4,4a,5,5a,6-hexahydrocyclopropa[f]indazol-3-yl)-1H-benzo[d]imidazol-5-yl)-N-methyl-2-(tetrahydro-2H-pyran-4-yl)propanamide] stands 8.30; under `C[C@@H](C(=O)N(C)c1cc(Br)c2[nH]c(-c3n[nH]c4c3C[C@@H]3C[C@]3(C)C4)nc2c1)N1CCOCC1` [Example 37, (S)—N-(7-bromo-2-((4aS,5aR)-5a-methyl-1,4,4a,5,5a,6-hexahydrocyclopropa[f]indazol-3-yl)-1H-benzo[d]imidazol-5-yl)-N-methyl-2-morpholinopropanamide], 8.05.
Under `Cc1cc2[nH]c(-c3n[nH]c4c3C[C@@H]3C[C@]3(C)C4)nc2cc1N(C)C(=O)C(C)C1CCOCC1` (stereo partly drawn) [Example 5, N-methyl-N-(6-methyl-2-((4aS,5aR)-5a-methyl-1,4,4a,5,5a,6-hexahydrocyclopropa[f]indazol-3-yl)-1H-benzo[d]imidazol-5-yl)-2-(tetrahydro-2H-pyran-4-yl)propanamide] stands 8.30; under `COc1cc(N(C)C(=O)[C@H](C)N2CCOCC2)cc2nc(-c3n[nH]c4c3C[C@@H]3C[C@]3(C)C4)[nH]c12` [Example 40, (S)—N-(7-methoxy-2-((4aS,5aR)-5a-methyl-1,4,4a,5,5a,6-hexahydrocyclopropa[f]indazol-3-yl)-1H-benzo[d]imidazol-5-yl)-N-methyl-2-morpholinopropanamide], 7.72.
`Cc1cc2[nH]c(-c3n[nH]c4c3C[C@@H]3C[C@]3(C)C4)nc2cc1N(C)C(=O)CN1CCO[C@@H](CO)C1` [Example 28, 2-((R)-2-(Hydroxymethyl)morpholino)-N-methyl-N-(6-methyl-2-((4aS,5aR)-5a-methyl-1,4,4a,5,5a,6-hexahydrocyclopropa[f]indazol-3-yl)-1H-benzo[d]imidazol-5-yl)acetamide] gave a pIC50 of 7.72.
The result for `Cc1cc2[nH]c(-c3n[nH]c4c3C[C@@H]3C[C@]3(C)C4)nc2cc1N(C)C(=O)CN1CCO[C@H](C)C1` [Example 30, N-Methyl-N-(6-methyl-2-((4aS,5aR)-5a-methyl-1,4,4a,5,5a,6-hexahydrocyclopropa[f]indazol-3-yl)-1H-benzo[d]imidazol-5-yl)-2-((R)-2-methylmorpholino)acetamide] reads 7.82.
Under `Cc1c(F)c(N(C)C(=O)[C@H](C)N2CCOCC2)cc2nc(-c3n[nH]c4c3C[C@@H]3C[C@]3(C)C4)[nH]c12` [Example 47, (S)—N-(6-fluoro-7-methyl-2-((4aS,5aR)-5a-methyl-1,4,4a,5,5a,6-hexahydrocyclopropa[f]indazol-3-yl)-1H-benzo[d]imidazol-5-yl)-N-methyl-2-morpholinopropanamide] stands 7.54.
The result for `Cc1cc2[nH]c(-c3n[nH]c4c3C[C@@H]3C[C@]3(C)C4)nc2cc1NC(=O)[C@H](C)N1CCOCC1` [Example 52, (S)—N-(6-methyl-2-((4aS,5aR)-5a-methyl-1,4,4a,5,5a,6-hexahydrocyclopropa[f]indazol-3-yl)-1H-benzo[d]imidazol-5-yl)-2-morpholinopropanamide] reads 6.92.

Source of the values: patent US20230280220A1, “Benzimidazole Derivative Compounds and Uses Thereof” (Pfizer Inc., priority 2019, published 2023).
